Laboratory results reported in patent US20250134828A1, “MOLECULAR SOLID SUSPENSIONS FOR TRANSDERMAL DRUG DELIVERY” (Starton Therapeutics, Inc., priority 2023, published 2025).
Read-outs that look alike come from different tables or passages of the source.

Key:
[1] = cited from earlier work; for Water Sol: Table 2
[2] = In vitro permeation (flux) test, modified Franz vertical diffusion cell, Strat-M synthetic membrane; format: in vitro ADME
Experimental: For in vitro permeation testing, the prepared transdermal formulations in the following examples were subjected to a flux (in vitro permeation) test as follows with either full-split thickness human cadaver skin or Strat-M® synthetic membrane. The full-split thickness human cadaver skin is prepared by thawing at room temperature in DI water, after which it is placed into a 55° C. water bath for a few minutes. After removal from elevated temperature water bath, the stratum corneum layer is removed, inspected, blotted, and cut into suitable sized samples for placement on a modified Franz vertical diffusion cell. Meanwhile, the Strat-M® synthetic membrane is utilized as instructed by the Millipore-Sigma instruction guide on its use. The patches are die cut to a 5/16″ diameter (˜0.5 cm^2) and affixed to the skin with use of an overlay to secure patch to skin. Receiver media is either standard saline (0.9% NaCl in DI water) or a fixed concentration (1%-5%) of povidone in DI Water. Sample volume is 5 mL, Franz cell volume is 5 mL. […] Actual patch size is 0.5 cm^2 with an effective flux area of about 0.6 cm^2. Aliquots taken are analyzed by HPLC method for each independent API. Typically, 3-5 replicates per formulation are performed to ensure adequate statistical significance is obtained for each study.

[3] = Drug product stability: potency and degradation products by relative retention time, liquid chromatography; format: physicochemical; details: with panthenol and/or other humectants; long term stability studies at room temperature and above 40° C.
Text: In Example 9, the effect of the incorporation of a humectant (e.g., panthenol) into the molecular solid suspension on the API stability and permeability is shown. […] In the tables below, TDS-009 includes 8 wt. % LLD, 5 wt. % Panthenol, 10% Poloxamer P407, 5 wt. % crospovidone and 22.5 wt. % Brij L4 in the presence of 49.5 wt. % DuroTak 87-4098 acrylic PSA, while TDS-011 is the same as TDS-009 without presence of 5 wt. % Panthenol, making up for the 5 wt. % difference with additional DuroTak 87-4098 acrylic PSA for a total of 54.5 wt. %.
Generally, the incorporation of panthenol into the molecular solid suspension results in a 10-fold reduction in hydrolytic degradation.
Each of the above formulations was protected from light, but not from ambient storage conditions of about 21° C. and ambient relative humidity.

[4] = format: in vitro ADME

For `Clc1cccc(Cl)c1N=C1NCCN1` [Clonidine], the “Water Sol” value [1] is listed as about 1 mg/mL.
For `C#C[C@]1(O)CC[C@H]2[C@@H]3CCc4cc(O)ccc4[C@H]3CC[C@@]21C` [Ethinyl Estradiol], the “Water Sol” value [1] is listed as about 0.1 mg/mL.
For `CN1C2CCCC1CC(NC(=O)c1nn(C)c3ccccc13)C2` (centres unmarked) [Granisetron], the “Water Sol” value [1] is listed as about 40 mg/mL and the water solubility [1] is listed as “less than 0.1 mg/mL”.
With `C[C@@H]1C[C@H]2[C@@H]3CCC4=CC(=O)C=C[C@]4(C)[C@@]3(F)[C@@H](O)C[C@]2(C)[C@@]1(O)C(=O)CO` [dexamethasone] the “increase in slope (average flux and cumulative flux)” value ([2]; 5 wt. % dexamethasone, 5 wt. % Kollidon CLM, 20 wt. % Laureth-4, 70 wt. % Durotak 87-4098 vs comparators, FIGS. 9-10) was “almost an infinite increase”.
In the case of `O=C1CC[C@H](N2Cc3c(OCc4ccc(CN5CCOCC5)cc4)cccc3C2=O)C(=O)N1` [iberdomide], the water solubility [1] is given as “less than 2 mg/mL”.
For `Nc1cccc2c1CN(C1CCC(=O)NC1=O)C2=O` (centres unmarked) [lenalidomide], the hydrolytic degradation [3] was “inhibits hydrolytic degradation”, the average flux ([4]; formulations with greater than about 15 wt. % O3 vs about 15 wt. % or less, FIG. 18) was “significantly higher” and the average flux ([4]; nonionic surfactants with HLB below 12 (O3, O5) vs HLB above 12 (O10, O20), FIG. 20) was “increased”. The observed flux rate ([2]; 4 wt. % drug formulation, FIGS. 13-14) was 2.4 μg/cm^2/hr, the average flux rate ([2]; 6 wt. % lenalidomide without panthenol, FIGS. 13-14) was 4.2 μg/cm^2/hr and the average flux rate ([2]; 6 wt. % lenalidomide without panthenol, FIGS. 15-16) was 5.1 μg/cm^2/hr. The “overall permeation relative to same formulation excluding panthenol” value ([2]; 6 wt. % lenalidomide, 5 wt. % panthenol, FIGS. 13-14) was “about 1.2 times”, the “overall permeation relative to same formulation excluding panthenol” value ([2]; 6 wt. % lenalidomide, 5 wt. % panthenol, FIGS. 15-16) was “about 1.5 times” and the average flux rate ([2]; 6 wt. % lenalidomide, 5 wt. % panthenol, after about the 8 hour time point, FIGS. 13-14) was 5.4 μg/cm^2/hr. The average flux rate ([2]; 6 wt. % lenalidomide, 5 wt. % panthenol, after about the 8 hour time point, FIGS. 15-16) was 7.5 μg/cm^2/hr, the average flux rate ([2]; 10 wt. % lenalidomide without panthenol, FIGS. 11-12) was 3.4 μg/cm^2/hr and the “overall permeation relative to same formulation excluding panthenol” value ([2]; 10 wt. % lenalidomide, 5 wt. % panthenol, FIGS. 11-12) was “about 1.4 times”. For the same molecule, the average flux rate ([2]; 10 wt. % lenalidomide, 5 wt. % panthenol, after about the 8 hour time point, FIGS. 11-12) was 4.7 μg/cm^2/hr, the average flux ([2]; HLB below 12 surfactants (O3, O5) with poloxamer P407 vs without poloxamer, FIG. 21) was “increased” and the average flux ([2]; at 24 hours, with both humectant and high HLB nonionic surfactant (panthenol and P407), low HLB surfactant O3, FIG. 17) was “about 6 μg/cm^2/hr”. For the same molecule, the average flux ([2]; formulations with greater than about 15 wt. % O3 vs about 15 wt. % or less, FIG. 19) was “significantly higher”.
With `Cc1cc2c(s1)Nc1ccccc1N=C2N1CCN(C)CC1` [olanzapine, 2-methyl-10-(4-methyl-1-piperazinyl)-4H-thieno-[2,3-b][1,5]benzo-diazepine] the depletion ([2]; 5 wt. % olanzapine molecular solid suspension with Laureth-4, after about 24 hours) was 100%, the “increase in availability (average flux) at about 8-hour time point” value ([2]; 5 wt. % olanzapine molecular solid suspension with Laureth-4 vs comparators, FIG. 3) was “about 16 ×” and the “increase in slope for cumulative flux” value ([2]; 5 wt. % olanzapine, 5 wt. % Kollidon CLM, 20 wt. % Laureth-4, 70 wt. % Durotak 87-4098 vs formulations without Laureth-4, FIG. 4) was “approximately 1.2 ×”. It also gave a depletion ([2]; other two olanzapine formulations (no Laureth-4), over 72 hours) of 60%.
